Experimental data published in patent US8097626B2, “IL-8 receptor antagonists” (GlaxoSmithKline LLC, priority 2006, dated 2012).
pIC50: −log10 of the molar value. Like-named read-outs stand apart in the source and are kept apart here.

System: GROα-induced expression of the integrin CD11b on neutrophils in human whole blood
Experiment: CD11b human whole blood assay
Format: cell-based
Conditions: Neutrophil, 10 nM GROα
Procedure: The compounds indicated were tested for their ability to inhibit the GROα-induced expression of the integrin CD11b on neutrophils in human whole blood.
Blood was drawn (9 ml) using a butterfly line and a 10 ml syringe containing 0.2 ml of working Sodium Heparin. The blood was kept at 37° C. until placed on ice in step 5 below. Compound stock solutions were then diluted to 12 times the maximum final concentration, 120 uM. Half Log serial dilutions were then performed in vehicle. Ten microliters of the compound dilutions or vehicle were then added to the appropriate 12×75 polypropylene tubes. One hundred microliters of whole blood was added per tube and incubated for 10 minutes, in a 37° C. water bath with initial (gentle) agitation and again at 5 minutes. The GROα stock was diluted 1:166.66 in 0.1% BSA-DPBS to “12×” concentration of 120 nM and 10 ul of the GROα dilution or 01% BSA-DPBS was added to the appropriate tubes so that the final GROα concentration equaled 10 nM. The tubes were incubated for 10 min at 37° C. with gentle hand agitation and again at 5 minutes. Samples were then placed on ice and 250 ul of ice cold CellFix working dilution was added followed by a one minute incubation on ice. 1.5 ml Eppendorf tubes were readied during GROα incubation by adding the appropriate antibodies. Every tube received 10 ul of CD11b-FITC and 5 ul of CD16-PE, except for the isotype control which received 10 ul of IgG2a-FITC instead of CD11b. Addition of 50 ul of the fixed blood from each tube was added to the appropriate Eppendorf tube. Samples were allowed to then incubate for 20 min at 4° C. in the dark. Addition of the blood/antibody mixtures to 500 ul of cold DPBS were added to the appropriately labeled 12×75 polystyrene tube. The resulting mixture was kept on ice. LDS stock (10 ul) was added and the mixture was incubated for 10 min at 4° C. before flow analysis. Samples were kept in a darkened environment. The LDS addition was staggered as the samples were collected on the flow cytometer so that all samples were run ˜10-20 minutes post-LDS addition.
Medium flow rate was used for flow collection and FL3 threshold increased to eliminate red blood cells from analysis using the LDS signal. The color compensation was properly set using unlabeled samples and one-color samples to subtract LDS spill into PE and the PE spill into FITC and FITC into PE. For the BD LSR cytometer, LDS=FL3, PE=FL2, FITC=FL1. A minimum of 2000-3000 events that satisfy the granulocyte gate by SSC vs. FSC and were CD16 positive by the FL2 signal were collected.

[1] = activity threshold, read-out: IC50, inhibition of GROα-induced CD11b expression on neutrophils
[2] = from about 3 uM to about 0.7 uM, read-out: IC50, inhibition of GROα-induced CD11b expression on neutrophils (span of the tested compounds)

Q: With `O=C(Nc1ccc(Cl)c(S(=O)(=O)N2C[C@@H]3C[C@H]2CN3)c1O)Nc1cccc(F)c1Cl` [Example 1, N-[4-chloro-3-[(1S,4S)-2,5-diazabicyclo[2.2.1]hept-2-ylsulfonyl]-2-hydroxyphenyl]-N′-(2-chloro-3-fluorophenyl)urea] as the molecule, how does the pIC50 [1] read?
A: > 5.30

Q: And the pIC50 [2]?
A: 5.52 to 6.15

Q: With `O=C(Nc1ccc(Cl)c(S(=O)(=O)N2CC3CC2CN3)c1O)Nc1cccc(F)c1Cl` (racemic) [Example 23, (+/−)-N-[4-chloro-3-(2,5-diazabicyclo[2.2.1]hept-2-ylsulfonyl)-2-hydroxyphenyl]-N′-(2-chloro-3-fluorophenyl)urea] as the molecule, how does the pIC50 [1] read?
A: > 5.30

Q: And the pIC50 [2]?
A: 5.52 to 6.15

Q: Which results are given for `O=C(Nc1ccc(Cl)c(S(=O)(=O)N2C[C@@H]3C[C@H]2CN3CC2CC2)c1O)Nc1cccc(F)c1Cl` [Example 2, N-(4-chloro-3-{[(1S,4S)-5-(cyclopropylmethyl)-2,5-diazabicyclo[2.2.1]hept-2-yl]sulfonyl}-2-hydroxyphenyl)-N′-(2-chloro-3-fluorophenyl)urea]?
A: pIC50 [1]: > 5.30; pIC50 [2]: 5.52 to 6.15

Q: With `O=C1C[C@H]2CC[C@@H](C1)N2S(=O)(=O)c1c(Cl)ccc(NC(=O)Nc2cccc3c2OC(F)(F)O3)c1O` [Example 26, N-(4-chloro-2-hydroxy-3-{[(1R,5S)-3-oxo-8-azabicyclo[3.2.1]oct-8-yl]sulfonyl}phenyl)-N′-(2,2-difluoro-1,3-benzodioxol-4-yl)urea] as the molecule, how does the pIC50 [1] read?
A: > 5.30

Q: What about the pIC50 [2] of the same molecule?
A: 5.52 to 6.15

Q: With `CCc1ccccc1NC(=O)Nc1ccc(Cl)c(S(=O)(=O)N2C[C@H]3C[C@@H]2CN3)c1O` (stereo in doubt) [Example 12, N-{4-chloro-3-[(1R,4R)-2,5-diazabicyclo[2.2.1]hept-2-ylsulfonyl]-2-hydroxyphenyl}-N′-(2-ethylphenyl)urea] as the molecule, how does the pIC50 [1] read?
A: > 5.30

Q: And the pIC50 [2]?
A: 5.52 to 6.15

Q: Which results are given for `O=C(Nc1ccccc1Oc1ccccc1)Nc1ccc(Cl)c(S(=O)(=O)N2C[C@H]3CC[C@@H](C2)N3)c1O` [Example 18, N-[4-chloro-3-(3,8-diazabicyclo[3.2.1]oct-3-ylsulfonyl)-2-hydroxyphenyl]-N′-[2-(phenyloxy)phenyl]urea]?
A: pIC50 [1]: > 5.30; pIC50 [2]: 5.52 to 6.15

Q: With `Cc1c(F)cccc1NC(=O)Nc1ccc(Cl)c(S(=O)(=O)N2C[C@H]3CC[C@@H](C2)N3)c1O` [Example 17, N-[4-chloro-3-(3,8-diazabicyclo[3.2.1]oct-3-ylsulfonyl)-2-hydroxyphenyl]-N′-(3-fluoro-2-methylphenyl)urea] as the molecule, how does the pIC50 [1] read?
A: > 5.30

Q: And the pIC50 [2]?
A: 5.52 to 6.15

Q: With `O=C(Nc1ccc(Cl)c(S(=O)(=O)N2C3CC[C@H]2CNC3)c1O)Nc1cccc(F)c1Cl` (stereo in doubt) [Example 45, N-{4-chloro-3-[(1S,5S)-3,8-diazabicyclo[3.2.1]oct-8-ylsulfonyl]-2-hydroxyphenyl}-N′-(2-chloro-3-fluorophenyl)urea] as the molecule, how does the pIC50 [1] read?
A: > 5.30

Q: And the pIC50 [2]?
A: 5.52 to 6.15

Q: How did the pIC50 [1] turn out when `O=C(Nc1cccnc1Cl)Nc1ccc(Cl)c(S(=O)(=O)N2CCn3ccnc3C2)c1O` [Example 3, N-[4-chloro-3-(5,6-dihydroimidazo[1,2-a]pyrazin-7(8H)-ylsulfonyl)-2-hydroxyphenyl]-N′-(2-chloro-3-pyridinyl)urea] was run?
A: > 5.30

Q: And the pIC50 [2]?
A: 5.52 to 6.15
